EC50 data for 24 compounds are collected here from patent US20170121344A1 (Siga Technologies, Inc., priority 2009, published 2017).

In assay [1] the test system is Dengue-2 (Strain New Guinea C). Briefly: Viral yield assay against Dengue-2 in Vero cells. The conditions noted are these: Dengue virus, read-out: Activity (EC50 in μM) DENV-2. The format is cell-based, Dengue virus. In a few lines:
(§1)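 Vero cells were infected with dengue virus at an MOI of 0.1, treated with compound or DMSO vehicle, and kept at 37° C. Supernatant virus was harvested 48 hours post infection and titered on Vero cells, with EC50 derived from yield reduction.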

The subject of the next assay is DENV-1. Briefly: Viral yield assay against DENV-1 in Vero cells. As to conditions: Dengue virus. The format is cell-based. Put shortly:
as §1

For another assay, the system named is DENV-3. Briefly: Viral yield assay against DENV-3 in Vero cells. The class given is cell-based. The conditions noted are these: Dengue virus. Put shortly: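 Progeny virus from compound-treated Vero monolayers infected at an MOI of 0.1 is collected after 48 h at 37° C and titered on Vero cells. DMSO serves as control.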
Another assay concerns DENV-4. The assay is described as follows: Viral yield assay against DENV-4 in Vero cells. The format is cell-based. The conditions noted are these: Dengue virus. In a few lines:
as §1

Setting [2] is: DENV2, viral yield assay, Vero cells, MOI 0.1, 48 hours post infection.

Where two headings read alike, the source gives them in different places. Bounds are passed on as bounds.

For `CCOC(=O)CCC(=O)Nc1c(C(=O)Nc2cccc(C(F)(F)F)c2)sc2nc(-c3cccs3)ccc12` [Compound 310, Ethyl 4-oxo-4-[[6-(2-thienyl)-2-[[3-(trifluoromethyl)phenyl]carbamoyl]thieno[2,3-b]pyridin-3-yl]amino]butanoate], the EC50 (in general, the midpoint of the concentration-response curve) in assay [1] (DENV2, Vero cells) was under 5 µM; in the assay with DENV-1 (DENV1), under 5 µM; with DENV-3 (DENV3), under 5 µM; in the assay on DENV-4 (DENV4), under 5 µM.
`Nc1c(C(=O)Nc2ccc(Cl)cn2)sc2nc(-c3ccc(Cl)cc3)ccc12` [Compound 352, 3-amino-6-(4-chlorophenyl)-N-(5-chloro-2-pyridyl)thieno [2,3-b]pyridine-2-carboxamide]: the EC50 in assay [1] (setting [2]) was under 5 µM; with DENV-1 (DENV1, viral yield assay), under 5 µM; in the assay on DENV-3 (DENV3, viral yield assay) it was under 5 µM; in the assay on DENV-4 (DENV4, viral yield assay), under 5 µM.
With `COc1ccc(-c2ccc3c(N)c(C(=O)Nc4ccc(Br)cc4F)sc3n2)cc1OC` [Compound 628, 3-amino-N-(4-bromo-2-fluoro-phenyl)-6-(3,4-dimethoxyphenyl)thieno[2,3-b] pyridine-2-carboxamide], the EC50 is under 5 µM in assay [1] (setting [2]); under 5 µM with DENV-1 (DENV1, viral yield assay); under 5 µM in the assay with DENV-3 (DENV3, viral yield assay); under 5 µM in the assay with DENV-4 (DENV4, viral yield assay).
For the compound `CCNc1c(C(=O)Nc2cccc(C(F)(F)F)c2)sc2nc(-c3cccs3)ccc12` [Compound 321, 3-(ethylamino)-6-(2-thienyl)-N-[3-(trifluoromethyl)phenyl]thieno[2,3-b]pyridine-2-carboxamide], the EC50 in assay [1] (DENV2, Vero cells) is under 5 µM; in the assay on DENV-1 (DENV1), under 5 µM; with DENV-3 (DENV3) it was under 5 µM; in the assay with DENV-4 (DENV4), under 5 µM.
Consider `CCCCSc1nc2ccc(NC(=O)c3sc4nc(-c5cccc(OC)c5)ccc4c3N)cc2s1` [Compound 570, 3-amino-N-(2-butylsulfanyl-1,3-benzo-thiazol-6-yl)-6-(3-methoxyphenyl)thieno [2,3-b]pyridine-2-carboxamide], for which the EC50 in assay [1] (setting [2]) was under 5 µM; in the assay on DENV-1 (DENV1, viral yield assay), under 5 µM; in the assay with DENV-3 (DENV3, viral yield assay), under 5 µM; in the assay on DENV-4 (DENV4, viral yield assay) it was under 5 µM.
As to `Nc1c(C(=O)Nc2ccc(F)cc2F)sc2nc(-c3cccs3)ccc12` [Compound 471, 3-amino-N-(2,4-difluorophenyl)-6-(2-thienyl)thieno[2,3-b]pyridine-2-carboxamide], the EC50 is under 5 µM in assay [1] (setting [2]); under 5 µM with DENV-1 (DENV1, viral yield assay); under 5 µM in the assay with DENV-3 (DENV3, viral yield assay); under 5 µM in the assay on DENV-4 (DENV4, viral yield assay).
In the case of `N#Cc1c(O)nc2sc(C(=O)Nc3ccc(Br)cc3)c(N)c2c1-c1ccco1` [Compound 325, 3-amino-N-(4-bromophenyl)-5-cyano-4-(2-furyl)-6-hydroxy-thieno[2,3-b]pyridine-2-carboxamide], the EC50 was under 5 µM in assay [1] (setting [2]); under 5 µM in the assay with DENV-1 (DENV1, viral yield assay); under 5 µM in the assay with DENV-3 (DENV3, viral yield assay); under 5 µM in the assay with DENV-4 (DENV4, viral yield assay).
In the case of `Nc1c(C(=O)Nc2ccc(OC(F)(F)F)cc2)sc2nc(-c3cccc(OC(F)(F)F)c3)ccc12` [Compound 332, 3-amino-6-[3-(trifluoromethoxy)phenyl]-N-[4-(trifluoromethoxy)phenyl]thieno[2,3-b]pyridine-2-carboxamide], the EC50 in assay [1] (setting [2]) was under 5 µM; with DENV-1 (DENV1, viral yield assay), under 5 µM; in the assay on DENV-3 (DENV3, viral yield assay), under 5 µM; in the assay on DENV-4 (DENV4, viral yield assay), under 5 µM.
Regarding `Cc1cc(Br)ccc1NC(=O)c1sc2nc(-c3ccc4c(c3)OCO4)ccc2c1N` [Compound 497, 3-amino-6-(1,3-benzodioxol-5-yl)-N-(4-bromo-2-methyl-phenyl)thieno[2,3-b] pyridine-2-carboxamide], the EC50 is under 5 µM in assay [1] (setting [2]); under 5 µM in the assay with DENV-1 (DENV1, viral yield assay); under 5 µM in the assay on DENV-3 (DENV3, viral yield assay); under 5 µM in the assay on DENV-4 (DENV4, viral yield assay).
As to `C=CCSc1ccc(NC(=O)c2sc3nc(-c4cccc(OC)c4)ccc3c2N)cc1` [Compound 542, N-(4-allylsulfanylphenyl)-3-amino-6-(3-methoxyphenyl)thieno[2,3-b]pyridine-2-carboxamide], the EC50 is under 5 µM in assay [1] (setting [2]); under 5 µM in the assay on DENV-1 (DENV1, viral yield assay); under 5 µM with DENV-3 (DENV3, viral yield assay); under 5 µM with DENV-4 (DENV4, viral yield assay).
Turning to `Nc1c(C(=O)Nc2cc(F)ccc2F)sc2nc(-c3cccs3)ccc12` [Compound 470, 3-amino-N-(2,5-difluorophenyl)-6-(2-thienyl)thieno[2,3-b]pyridine-2-carboxamide], the EC50 in assay [1] (DENV2, Vero, 48 h) was under 5 µM; with DENV-1 (DENV1, viral yield assay), under 5 µM; in the assay with DENV-3 (DENV3, viral yield assay), under 5 µM; in the assay on DENV-4 (DENV4, viral yield assay), under 5 µM.
Regarding `Nc1c(C(=O)N(c2ccccc2)c2ccccc2)sc2nc3c(cc12)CCCCC3` [Compound 373, 3-amino-N,N-diphenyl-6,7,8,9-tetrahydro-5H-cyclohepta[b]thieno[3,2-e]pyridine-2-carboxamide], the EC50 is under 5 µM in assay [1] (setting [2]); under 5 µM with DENV-1 (DENV1, viral yield assay); under 5 µM in the assay with DENV-3 (DENV3, viral yield assay); under 5 µM in the assay on DENV-4 (DENV4, viral yield assay).
`Nc1c(C(=O)Nc2ccc(OC(F)(F)F)cc2)sc2nc3c(cc12)CCCCC3` [Compound 369, 3-amino-N-(4-(trifluroomethoxy)phenyl)-6,7,8,9-tetrahydro-5H-cyclohepta[b]thieno [3,2-e]pyridine-2-carboxamide]: the EC50 in assay [1] (setting [2]) was under 5 µM; in the assay on DENV-1 (DENV1, viral yield assay), 5 to 25 µM; with DENV-3 (DENV3, viral yield assay), under 5 µM; in the assay with DENV-4 (DENV4, viral yield assay), under 5 µM.
Turning to `COc1ccc(-c2ccc3c(N)c(C(=O)Nc4cccc(C(F)(F)F)c4)sc3n2)cc1OC` [Compound 476, 3-amino-6-(3,4-dimethoxyphenyl)-N-[3-(trifluoromethyl)phenyl]thieno[2,3-b] pyridine-2-carboxamide], the EC50 is under 5 µM in assay [1] (setting [2]); under 5 µM in the assay on DENV-1 (DENV1, viral yield assay); under 5 µM in the assay with DENV-3 (DENV3, viral yield assay); under 5 µM in the assay with DENV-4 (DENV4, viral yield assay).
Regarding `Nc1c(C(=O)Nc2cccc(C(F)(F)F)c2)sc2nc(-c3ccc4c(c3)OCO4)ccc12` [Compound 453, 3-amino-6-(1,3-benzodioxol-5-yl)-N-[3-(trifluoromethyl)phenyl]thieno[2,3-b] pyridine-2-carboxamide], the EC50 is under 5 µM in assay [1] (setting [2]); under 5 µM with DENV-1 (DENV1, viral yield assay); under 5 µM in the assay on DENV-3 (DENV3, viral yield assay); under 5 µM in the assay on DENV-4 (DENV4, viral yield assay).
In the case of `Nc1c(C(=O)Nc2nnc(-c3ccccc3)s2)sc2nc(Cl)ccc12` [Compound 292], the EC50 in assay [1] (setting [2]) was under 5 µM; in the assay on DENV-1 (DENV1, viral yield assay), under 5 µM; with DENV-3 (DENV3, viral yield assay), under 5 µM; in the assay with DENV-4 (DENV4, viral yield assay) it was under 5 µM.
As to `COc1cccc(-c2ccc3c(N)c(C(=O)Nc4ccc(F)cc4)sc3n2)c1` [Compound 510, 3-amino-N-(4-fluorophenyl)-6-(3-methoxyphenyl)thieno[2,3-b]pyridine-2-carboxamide], the EC50 was under 5 µM in assay [1] (DENV2, Vero, 48 h); under 5 µM with DENV-1 (DENV1, viral yield assay); under 5 µM in the assay on DENV-3 (DENV3, viral yield assay); under 5 µM with DENV-4 (DENV4, viral yield assay).
On to `COc1ccc(Cl)cc1NC(=O)c1sc2nc(-c3ccc(OC)c(OC)c3)ccc2c1N` [Compound 532, 3-amino-N-(5-chloro-2-methoxy-phenyl)-6-(3,4-dimethoxyphenyl)thieno[2,3-b] pyridine-2-carboxamide], for which the EC50 in assay [1] (setting [2]) is under 5 µM; in the assay on DENV-1 (DENV1, viral yield assay) it was under 5 µM; with DENV-3 (DENV3, viral yield assay), under 5 µM; with DENV-4 (DENV4, viral yield assay), under 5 µM.
As for `COc1ccc(-c2ccc3c(N)c(C(=O)Nc4ccccc4Br)sc3n2)cc1` [Compound 468, 3-amino-N-(2-bromophenyl)-6-(4-methoxyphenyl)thieno[2,3-b]pyridine-2-carboxamide], the EC50 in assay [1] (setting [2]) is under 5 µM; in the assay with DENV-1 (DENV1, viral yield assay), under 5 µM; with DENV-3 (DENV3, viral yield assay), under 5 µM; in the assay with DENV-4 (DENV4, viral yield assay), under 5 µM.
As for `NCCNc1c(C(=O)Nc2nnc(-c3ccccc3)s2)sc2nc3c(cc12)CCCCC3` [Compound 294, 3-((2-aminoethyl)amino)-N-(5-phenyl-1,3,4-thiadiazol-2-yl)-6,7,8,9-tetrahydro-5H-cyclohepta[b]thieno[3,2-e]pyridine-2-carboxamide], the EC50 in assay [1] (DENV2, Vero cells) is under 5 µM; in the assay with DENV-1 (DENV1) it was under 5 µM; in the assay with DENV-3 (DENV3) it was under 5 µM; with DENV-4 (DENV4), under 5 µM.
For the compound `CN1CCc2nc3sc(C(=O)Nc4nnc(-c5ccccc5)s4)c(N)c3cc2C1` [Compound 301, 3-amino-6-methyl-N-(5-phenyl-1,3,4-thiadiazol-2-yl)-7,8-dihydro-5H-thieno[2,3-b][1,6]naphthyridine-2-carboxamide], the EC50 in assay [1] (setting [2]) was under 5 µM; in the assay on DENV-1 (DENV1, viral yield assay), under 5 µM; in the assay with DENV-3 (DENV3, viral yield assay) it was 5 to 25 µM; with DENV-4 (DENV4, viral yield assay), under 5 µM.
With `Cc1ccc(NC(=O)c2sc3nc(-c4cccs4)ccc3c2N)cc1F` [Compound 458, 3-amino-N-(3-fluoro-4-methyl-phenyl)-6-(2-thienyl)thieno [2,3-b]pyridine-2-carboxamide], the EC50 in assay [1] (setting [2]) was under 5 µM; in the assay on DENV-1 (DENV1, viral yield assay), under 5 µM; in the assay on DENV-3 (DENV3, viral yield assay), under 5 µM; in the assay on DENV-4 (DENV4, viral yield assay), under 5 µM.
Consider `COc1ccc(C(F)(F)F)cc1NC(=O)c1sc2nc(-c3ccc4c(c3)OCO4)ccc2c1N` [Compound 599, 3-amino-6-(1,3-benzodioxol-5-yl)-N-[2-methoxy-5-(trifluoromethyl)phenyl]thieno [2,3-b]pyridine-2-carboxamide], for which the EC50 in assay [1] (setting [2]) is under 5 µM; in the assay on DENV-1 (DENV1, viral yield assay), under 5 µM; in the assay on DENV-3 (DENV3, viral yield assay), under 5 µM; in the assay with DENV-4 (DENV4, viral yield assay), under 5 µM.
`Nc1c(C(=O)Nc2nnc(-c3ccccc3)s2)sc2nc(-c3cccs3)ccc12` [Compound 488, 3-amino-N-(5-phenyl-1,3,4-thiadiazol-2-yl)-6-(2-thienyl)thieno[2,3-b]pyridine-2-carboxamide]: the EC50 is under 5 µM in assay [1] (setting [2]); under 5 µM with DENV-1 (DENV1, viral yield assay); under 5 µM in the assay with DENV-3 (DENV3, viral yield assay); under 5 µM in the assay on DENV-4 (DENV4, viral yield assay).
